The record followed here is paper PMC12442245, “Activity Analysis of the P2X Receptor Antagonist PPADS against Signal Transducer and Activator of Transcription Proteins” (Chembiochem, 2025).

For orientation: IC50 means the concentration needed to halve the response being measured.

The target in assay [1] is T1, STAT6 (Homo sapiens, UniProt P42226).
T1 sequence (P42226 1-847): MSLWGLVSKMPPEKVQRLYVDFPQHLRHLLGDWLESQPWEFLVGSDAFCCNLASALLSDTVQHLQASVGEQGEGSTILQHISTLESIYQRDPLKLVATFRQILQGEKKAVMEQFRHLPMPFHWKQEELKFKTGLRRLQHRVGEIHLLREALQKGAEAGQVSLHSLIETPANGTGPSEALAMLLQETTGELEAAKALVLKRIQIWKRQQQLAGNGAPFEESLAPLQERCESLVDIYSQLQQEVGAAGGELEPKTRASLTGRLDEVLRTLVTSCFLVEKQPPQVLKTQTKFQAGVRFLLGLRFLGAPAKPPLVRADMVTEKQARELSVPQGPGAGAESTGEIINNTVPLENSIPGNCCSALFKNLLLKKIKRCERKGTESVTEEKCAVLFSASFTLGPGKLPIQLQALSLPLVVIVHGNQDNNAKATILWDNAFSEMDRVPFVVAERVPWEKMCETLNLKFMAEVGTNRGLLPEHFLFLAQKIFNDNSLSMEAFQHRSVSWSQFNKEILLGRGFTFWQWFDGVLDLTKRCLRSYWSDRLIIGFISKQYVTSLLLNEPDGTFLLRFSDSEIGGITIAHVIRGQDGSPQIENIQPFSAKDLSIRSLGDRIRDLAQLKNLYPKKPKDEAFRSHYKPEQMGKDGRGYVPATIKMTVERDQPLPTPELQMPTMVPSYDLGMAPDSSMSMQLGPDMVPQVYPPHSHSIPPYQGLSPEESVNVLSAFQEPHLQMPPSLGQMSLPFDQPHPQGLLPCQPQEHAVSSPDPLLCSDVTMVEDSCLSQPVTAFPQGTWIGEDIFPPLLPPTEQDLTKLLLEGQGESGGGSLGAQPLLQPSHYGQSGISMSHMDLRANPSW
The assay can be described thus: Competitive fluorescence polarization (FP) assay, STAT6. Type of assay: binding. Conditions: no reducing agent, 1 h. Here is the method: (§1) Screening of chemical libraries […]
(§2) PPADS was purchased […]
(§3) from Sigma-Aldrich, and iso-PPADS from Bio-Techne.
(§4) Fluorescence polarization assays
(§5) Competitive fluorescence polarization (FP) assays for STAT1,[2] STAT3,[3] STAT4,[4] STAT5a,[5] STAT5b[6] and STAT6[1] were performed as previously described. Briefly, peptide binding to proteins was analyzed using the following carboxyfluorescein (CF) -labelled pepti des at a concentration of 10 nM: STAT1: 5-CF-GpYDKPHVL-OH, STAT3: 5-CF-GpYLPQTV -NH2, STAT4: 5-CF-GpYLPQNID-OH, STAT5a and STAT5b: 5-CF-GpYLVLDKW-OH, STAT6: 5- […]
CFGp[…]-OH. Proteins were used at a final concentration representing the approximate Kd value for binding of the corresponding peptide to the protein, namely 65 nM for STAT1, 65 nM for STAT3, 35 nM for STAT4, 125 nM for STAT5a, 65 nM for STAT5b and 75 nM for STAT6. Assays were carried out in buffer containing 10 mM Tris/HCl, 50 mM NaCl, 1 mM EDTA, 0.1% NP-40 substitute and 2% DMSO, with 1 mM reducing agent where applicable, at pH 8.0. Proteins were incubated with compound for 1 h at room temperature before adding peptide and incubating for a further 1 h. FP was measured using an Infinite F500 plate reader (Tecan) and measurements were converted into percent inhibition according to […]
(In fluorescence polarisation assays a small probe gives low polarisation when free and higher when bound to something large.)

Assay [2] has as its target T2, STAT4 (Homo sapiens, UniProt Q14765).
T2 sequence (Q14765 1-748): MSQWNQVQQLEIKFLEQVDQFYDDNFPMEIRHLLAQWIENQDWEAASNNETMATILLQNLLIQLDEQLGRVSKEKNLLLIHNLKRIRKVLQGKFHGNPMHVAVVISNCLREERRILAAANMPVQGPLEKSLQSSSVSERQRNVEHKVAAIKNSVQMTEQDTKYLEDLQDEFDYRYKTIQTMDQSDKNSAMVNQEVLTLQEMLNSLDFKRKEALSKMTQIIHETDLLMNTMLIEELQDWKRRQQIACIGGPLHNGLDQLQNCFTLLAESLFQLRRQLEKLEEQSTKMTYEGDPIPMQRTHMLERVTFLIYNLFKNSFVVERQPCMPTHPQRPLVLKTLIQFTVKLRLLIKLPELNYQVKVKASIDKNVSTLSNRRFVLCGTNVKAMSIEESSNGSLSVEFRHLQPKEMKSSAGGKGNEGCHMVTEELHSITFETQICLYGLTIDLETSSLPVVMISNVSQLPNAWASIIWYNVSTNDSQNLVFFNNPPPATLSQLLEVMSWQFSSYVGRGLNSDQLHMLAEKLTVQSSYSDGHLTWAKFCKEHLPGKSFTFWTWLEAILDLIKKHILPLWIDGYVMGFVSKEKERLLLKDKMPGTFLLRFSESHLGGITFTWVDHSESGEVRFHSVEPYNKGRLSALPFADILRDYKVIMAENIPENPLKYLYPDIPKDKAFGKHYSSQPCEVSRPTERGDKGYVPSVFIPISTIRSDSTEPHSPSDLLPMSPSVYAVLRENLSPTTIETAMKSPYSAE
The assay can be described thus: Competitive fluorescence polarization (FP) assay, STAT4. Type of assay: binding. The method, then:
as §1, §2, §3, §4, §5
CFGp[…]-OH. Proteins were used at a final concentration representing the approximate Kd value for binding of the corresponding peptide to the protein, namely 65 nM for STAT1, 65 nM for STAT3, 35 nM for STAT4, 125 nM for STAT5a, 65 nM for STAT5b and 75 nM for STAT6. Assays were carried out in buffer containing 10 mM Tris/HCl, 50 mM NaCl, 1 mM EDTA, 0.1% NP-40 substitute and 2% DMSO, with 1 mM reducing agent where […]
applicable, at pH 8.0. […]
before adding peptide and incubating for a further 1 h. FP was measured using an Infinite F500 plate reader (Tecan) and measurements were converted into percent inhibition according to […]

[3] abbreviates: no reducing agent, 1 h, read-out: IC50 STAT4 (FP assay).

Read-outs that look alike come from different tables or passages of the source.

For `Cc1nc(/N=N/c2ccc(S(=O)(=O)O)cc2S(=O)(=O)O)c(COP(=O)(O)O)c(C=O)c1O` [PPADS, pyridoxalphosphate‐6‐azophenyl‐2',4'‐disulfonic acid], the IC50 was 20100 ± 4600 nM in assay [1]; 1700 ± 300 nM in assay [2] (IC50 STAT4 (FP assay), 1 mM DTT, 1 hr); 2500 ± 400 nM in assay [2] (IC50 STAT4 (FP assay), 1 mM DTT, 2 hr); 3700 ± 600 nM in assay [2] (IC50 STAT4 (FP assay), 1 mM DTT, 3 hr); 4900 ± 900 nM in assay [2] (IC50 STAT4 (FP assay), 1 mM DTT, 4 hr); 2400 ± 300 nM in assay [2] (IC50 STAT4 (FP assay), 1 mM TCEP, 1 hr). Also, the half-maximal inhibitory concentration (IC50) in assay [2] (IC50 STAT4 (FP assay), 1 mM TCEP, 2 hr) worked out at 2400 ± 200 nM; in assay [2] (IC50 STAT4 (FP assay), 1 mM TCEP, 3 hr), 2500 ± 400 nM; in assay [2] (IC50 STAT4 (FP assay), 1 mM TCEP, 4 hr) it was 2800 ± 500 nM; in assay [2] (setting [3]), 2200 ± 200 nM; in assay [2] (no reducing agent, 2 hr, read-out: IC50 STAT4 (FP assay), no reducing agent), 2400 ± 300 nM; in assay [2] (no reducing agent, 3 hr, read-out: IC50 STAT4 (FP assay), no reducing agent), 2600 ± 300 nM. Further, the half-inhibitory concentration (IC50) in assay [2] (no reducing agent, 4 hr, read-out: IC50 STAT4 (FP assay), no reducing agent) was 2400 ± 100 nM.
In the case of `Cc1nc(/N=N/c2cc(S(=O)(=O)O)ccc2S(=O)(=O)O)c(COP(=O)(O)O)c(C=O)c1O` [iso‐PPADS], the 50% inhibitory concentration (IC50) came to 66000 ± 12000 nM in assay [1] and 1900 ± 200 nM in assay [2] (setting [3]).
